Data reported in ChEMBL document CHEMBL4145648, “Swinhoeisterols from the South China Sea Sponge Theonella swinhoei” (J Nat Prod, 2018).

Target: Histone acetyltransferase p300 (Homo sapiens, UniProt Q09472)
Experiment: Inhibition of human p300 expressed in Escherichia coli incubated for 15 mins followed by [3H]acetyl-CoA/histone addition

Chain of Histone acetyltransferase p300 (Q09472 whole entry): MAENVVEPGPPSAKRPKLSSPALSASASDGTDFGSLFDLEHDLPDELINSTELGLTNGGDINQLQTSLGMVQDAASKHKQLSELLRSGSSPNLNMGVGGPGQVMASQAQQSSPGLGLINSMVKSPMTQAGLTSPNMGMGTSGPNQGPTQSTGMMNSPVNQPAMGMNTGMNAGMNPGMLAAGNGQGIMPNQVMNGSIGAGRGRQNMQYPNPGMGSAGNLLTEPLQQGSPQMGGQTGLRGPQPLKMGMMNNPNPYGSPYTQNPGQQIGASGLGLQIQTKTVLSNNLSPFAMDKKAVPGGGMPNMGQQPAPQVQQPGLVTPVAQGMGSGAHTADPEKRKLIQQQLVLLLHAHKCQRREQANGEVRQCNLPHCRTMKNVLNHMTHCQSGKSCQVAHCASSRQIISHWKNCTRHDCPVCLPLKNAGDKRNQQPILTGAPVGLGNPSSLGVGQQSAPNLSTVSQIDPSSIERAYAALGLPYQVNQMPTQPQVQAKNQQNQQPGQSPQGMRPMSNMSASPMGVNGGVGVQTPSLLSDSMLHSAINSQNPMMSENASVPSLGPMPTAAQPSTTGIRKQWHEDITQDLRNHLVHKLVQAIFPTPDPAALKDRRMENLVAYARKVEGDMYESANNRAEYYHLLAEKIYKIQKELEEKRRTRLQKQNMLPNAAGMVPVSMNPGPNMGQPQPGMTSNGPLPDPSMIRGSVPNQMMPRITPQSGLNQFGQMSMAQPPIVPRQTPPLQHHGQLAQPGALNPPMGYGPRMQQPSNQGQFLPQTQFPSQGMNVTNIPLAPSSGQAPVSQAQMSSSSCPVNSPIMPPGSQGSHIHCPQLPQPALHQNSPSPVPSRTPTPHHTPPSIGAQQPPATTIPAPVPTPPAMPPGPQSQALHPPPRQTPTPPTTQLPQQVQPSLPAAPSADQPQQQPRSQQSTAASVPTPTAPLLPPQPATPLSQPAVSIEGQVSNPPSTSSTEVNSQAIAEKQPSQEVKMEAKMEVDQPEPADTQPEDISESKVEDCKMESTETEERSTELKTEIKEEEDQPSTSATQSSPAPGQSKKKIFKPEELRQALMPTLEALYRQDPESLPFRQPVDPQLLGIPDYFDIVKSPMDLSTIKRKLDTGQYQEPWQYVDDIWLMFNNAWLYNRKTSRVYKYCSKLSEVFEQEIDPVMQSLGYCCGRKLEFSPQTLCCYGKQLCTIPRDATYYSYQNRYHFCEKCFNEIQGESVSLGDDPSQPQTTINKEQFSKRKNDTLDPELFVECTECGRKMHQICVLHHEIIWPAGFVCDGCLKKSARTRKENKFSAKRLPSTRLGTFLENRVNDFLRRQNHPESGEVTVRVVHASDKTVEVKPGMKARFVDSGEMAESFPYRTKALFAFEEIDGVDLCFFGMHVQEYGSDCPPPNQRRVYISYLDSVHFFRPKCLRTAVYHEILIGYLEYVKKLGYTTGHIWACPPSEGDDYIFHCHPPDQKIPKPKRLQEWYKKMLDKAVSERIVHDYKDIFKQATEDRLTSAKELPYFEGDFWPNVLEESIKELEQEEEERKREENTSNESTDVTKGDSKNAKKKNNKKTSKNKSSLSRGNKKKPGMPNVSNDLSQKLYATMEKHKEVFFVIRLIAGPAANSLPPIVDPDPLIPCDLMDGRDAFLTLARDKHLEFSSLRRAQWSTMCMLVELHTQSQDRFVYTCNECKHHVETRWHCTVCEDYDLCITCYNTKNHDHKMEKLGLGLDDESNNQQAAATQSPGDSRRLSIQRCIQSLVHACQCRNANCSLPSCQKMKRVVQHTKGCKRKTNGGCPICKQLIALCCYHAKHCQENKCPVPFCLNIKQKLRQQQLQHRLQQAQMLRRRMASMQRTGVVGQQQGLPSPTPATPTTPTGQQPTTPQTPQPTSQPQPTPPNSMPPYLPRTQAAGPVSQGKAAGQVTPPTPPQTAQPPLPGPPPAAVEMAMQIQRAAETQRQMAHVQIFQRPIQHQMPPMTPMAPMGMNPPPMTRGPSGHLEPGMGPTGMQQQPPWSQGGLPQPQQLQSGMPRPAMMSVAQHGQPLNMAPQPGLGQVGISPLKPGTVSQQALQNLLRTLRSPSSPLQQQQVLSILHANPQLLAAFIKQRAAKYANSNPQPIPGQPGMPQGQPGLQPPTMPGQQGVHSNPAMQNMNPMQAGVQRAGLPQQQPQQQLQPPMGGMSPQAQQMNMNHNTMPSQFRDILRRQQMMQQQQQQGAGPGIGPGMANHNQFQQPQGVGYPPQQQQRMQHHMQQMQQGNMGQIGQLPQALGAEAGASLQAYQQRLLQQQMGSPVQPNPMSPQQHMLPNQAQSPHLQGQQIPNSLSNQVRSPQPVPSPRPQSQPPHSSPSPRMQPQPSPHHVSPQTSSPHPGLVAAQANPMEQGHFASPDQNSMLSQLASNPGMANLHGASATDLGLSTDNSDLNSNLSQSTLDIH

IC50 [µM]	SMILES
> 10	C=C1[C@@H](O)CC[C@@]2(C)[C@H]1C[C@]1(O)C(=O)CC[C@H]([C@H](C)CC[C@@H](C)C(C)C)[C@@]3(C)CC[C@]24O[C@@]413
0.5	C=C(C)[C@H](CC=C(C)C)C[C@]12C[C@H](CC=C(C)C)C(C)(C)[C@](CC=C(C)C)(C(=O)C(C(=O)c3ccc(O)c(O)c3)=C1O)C2=O
> 10	C=C1[C@@H](O)CC[C@@]2(C)[C@H]1CC1=C3[C@@H]2CC[C@]3(C)[C@@H]([C@H](C)CC[C@@H](C)C(C)C)CCC1=O
> 10	C=C1[C@@H](O)CC[C@]2(C)[C@H]3CC[C@@]4(C)[C@]35O[C@]4([C@H](C)CC[C@@H](C)C(C)C)CCC(=O)[C@@H]5C[C@@H]12
8.8	C=C1[C@@H](O)CC[C@@]2(C)[C@H]1C[C@H]1C(=O)CC[C@H]([C@H](C)CC[C@@H](C)C(C)C)[C@@]3(C)CC[C@]24O[C@]143
3.3	C=C1[C@@H](O)CC[C@]2(C)C3=C4[C@@H](C[C@@H]12)C(=O)CC[C@H]([C@H](C)CC[C@@H](C)C(C)C)[C@@]4(C)CC3
